Data taken from patent publication US10738041B2, “Ferroportin inhibitors” (Vifor (International) AG, priority 2015, dated 2020).
pIC50: −log10 of the molar value.

Tests used:
human Fpn = target: T1, human Fpn (Homo sapiens, UniProt Q9NP59); assay: Biophysical Ferroportin-Hepcidin Binding Assay (fluorescence polarization); conditions: average of multiple measurements; 1 μM human Fpn, 20 nM TMR-hepcidin; read-out: FP IC50
T1 construct: FLAG (C); made in house; host or cells: Pichia pastoris
T1 sequence (Q9NP59 1-571): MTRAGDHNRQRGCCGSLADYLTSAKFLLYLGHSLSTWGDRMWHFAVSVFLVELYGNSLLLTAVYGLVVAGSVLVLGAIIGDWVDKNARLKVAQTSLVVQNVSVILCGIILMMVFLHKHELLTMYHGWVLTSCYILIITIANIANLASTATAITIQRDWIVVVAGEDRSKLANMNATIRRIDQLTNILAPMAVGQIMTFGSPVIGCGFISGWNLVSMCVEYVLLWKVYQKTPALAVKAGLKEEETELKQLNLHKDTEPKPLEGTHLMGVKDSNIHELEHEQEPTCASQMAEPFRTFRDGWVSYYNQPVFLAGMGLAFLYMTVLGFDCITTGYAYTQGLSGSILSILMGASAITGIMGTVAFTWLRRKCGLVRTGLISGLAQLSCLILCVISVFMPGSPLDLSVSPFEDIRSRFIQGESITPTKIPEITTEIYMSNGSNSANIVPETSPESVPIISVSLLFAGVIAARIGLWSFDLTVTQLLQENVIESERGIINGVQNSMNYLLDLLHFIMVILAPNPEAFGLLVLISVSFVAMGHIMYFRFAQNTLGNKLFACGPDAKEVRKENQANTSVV
Method: This biophysical assay was developed to confirm inhibition of hepcidin binding to ferroportin (Fpn) more directly. Incubation of TMR-hepcidin with purified human Fpn isolated from Pichia pastoris yeast cells expressing human Fpn with a C-terminal FLAG affinity tag (Bonaccorsi di Patti, 2014) leads to increased fluorescence polarization (FP) of the TMR-hepcidin ligand. Small molecular weight Fpn inhibitors were tested for inhibition of binding of TMR-hepcidin to Fpn, as detected by dose-dependent decrease of the TMR FP signal, as described in detail below.
8 μl of serial dilutions of test compounds were added in duplicates to reach final Fpn and TMR-hepcidin concentrations of 1 μM and 20 nM, respectively. Plates were incubated for 90 minutes at room temperature and parallel (S) and perpendicular (P) fluorescence was measured in a Synergy H1 fluorescence reader (BioTek). FP values were calculated in mP according to the following formula.

ferroportin (Fpn) = target: T2, ferroportin (Fpn) (Mus musculus, UniProt Q9JHI9); assay: Hepcidin Internalization Assay (J774); format: cell-based; conditions: average of multiple measurements; inhibition of TMR-hepcidin (25 nM) internalization into J774 cells; read-out: J774 IC50
T2 construct: host or cells: J774 mouse macrophage cell line, Fe(III)-NTA induced
T2 sequence (Q9JHI9 1-570): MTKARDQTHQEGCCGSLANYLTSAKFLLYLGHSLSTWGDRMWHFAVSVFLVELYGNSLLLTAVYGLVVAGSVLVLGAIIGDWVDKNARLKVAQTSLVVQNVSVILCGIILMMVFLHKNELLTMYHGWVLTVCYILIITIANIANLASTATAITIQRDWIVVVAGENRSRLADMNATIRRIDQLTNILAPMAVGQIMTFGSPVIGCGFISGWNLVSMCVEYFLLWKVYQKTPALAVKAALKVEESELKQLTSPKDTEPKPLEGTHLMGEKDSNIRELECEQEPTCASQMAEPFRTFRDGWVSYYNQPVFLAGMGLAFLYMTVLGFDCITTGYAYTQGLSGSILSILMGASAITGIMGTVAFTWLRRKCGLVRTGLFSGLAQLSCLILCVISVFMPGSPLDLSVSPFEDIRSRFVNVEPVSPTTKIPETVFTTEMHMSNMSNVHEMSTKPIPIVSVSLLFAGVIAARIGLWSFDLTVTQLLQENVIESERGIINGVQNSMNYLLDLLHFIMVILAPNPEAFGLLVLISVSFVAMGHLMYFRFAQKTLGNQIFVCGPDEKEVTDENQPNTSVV
Excerpt: This cellular assay allows quantification of the binding of hepcidin to ferroportin (Fpn) through microscopic detection of internalization of a fluorescently labeled hepcidin into J774 cells. […] Binding of hepcidin to Fpn triggers internalization and degradation of both hepcidin and Fpn. However, the TMR (6-carboxytetramethylrhodamine) fluorophore attached to hepcidin remains associated with the cell after degradation of the hepcidin peptide backbone. Therefore, microscopic detection of ceH associated TMR fluorescence is a measure of hepcidin binding to Fpn and internalization of hepcidin and Fpn. If TMR-hepcidin is prevented from binding to Fpn, cellular TMR fluorescence remains low (Dürrenberger et al, 2013). The effect of small molecular weight Fpn inhibitor compounds in this assay was evaluated in vitro as described below.
J774 cells, harvested from ca. 80% confluent cultures, were plated at 8×10^5 cells/ml in complete medium (DMEM, 10% FBS, 1% Penicillin-Streptomycin) containing 200 μM Fe(III)NTA (nitrilotriacetic acid), 100 μl per well of 96 well MicroClear plates (Greiner; Cat. 655090) and grown at 37° C. with 5% CO2. After overnight incubation, cells were washed 3 times with pre-warmed DMEM w/o phenol red, 30 μl/well of DMEM w/o phenol red was added after the final wash and 10 μl/well of dilution series of test compounds were added in triplicates. […] Cells were incubated in a total volume of 50 μl at 37° C. with 5% CO2 for 2 hours, then Hoechst 33342 dye was added to a final concentration of 0.5 μg/ml to stain nuclei and further incubated for 10 min. at 37° C. with 5% CO2. Cells were washed 3 times with PBS and fixed in 100 μl of 4% paraformaldehyde in PBS for 15 min. at room temperature. After removal of the paraformaldehyde solution, cells were washed 3 times with PBS leaving 100 μl per well and the plates were sealed with foil plate seal. TMR (530-550 nm excitation/575-625 nm emission/400 ms exposure time) and Hoechst 33342 (360-370 nm excitation/420-460 nm emission/10 ms exposure time) fluorescence images were acquired using a ScanR plate imager (Olympus) with a 20× high NA objective. Four pictures were acquired per well and fluorescence channel covering ca. 1500 cells per well. The acquired image data was analysed with the ScanR image analysis software. Image analysis included detection of nuclei (Hoechst 33342 fluorescence), identification of cell-associated regions, application of a virtual channel and thresholding for rolling-ball-type background reduction, followed by application of the Sum(Mean) algorithm to measure the TMR fluorescence associated with cells as a quantitative measure for internalized TMR-hepcidin. IC50 values were calculated with the Sum(Mean) raw data using “log(inhibitor) vs. response” curve fitting of Prism 5 software (GraphPad Software Inc., version 5.02).

Compound | pIC50 (human Fpn) | pIC50 (ferroportin (Fpn))
Cn1cc(C(=O)NCc2ncccc2F)nc1CCNCc1nc2ccccc2[nH]1 [Example 210] | 5.73 | 5.31
O=C(NCc1ncccc1F)c1cnn(CC2CN(Cc3nc4ccccc4[nH]3)C2)c1 [Example 187] | 4.45 | 4.06
O=C(NCc1cccnc1F)c1csc(CCNCc2nc3ccccc3[nH]2)n1 [Example 103] | 5.60 | 5.63
CN(C)c1ccc(CNC(=O)c2csc(CCNCc3nc4ccccc4[nH]3)n2)cn1 [Example 98] | 5.24 | 5.73
CN(CCc1nc2ccccc2[nH]1)CCc1nc(C(=O)NCc2ncccc2F)co1 [Example 223] | 5.57 | 5.72
O=C(NCc1cccc(=O)[nH]1)c1csc(CCNCc2nc3ccccc3[nH]2)n1 [Example 47] | 5.47 | 6.14
O=C(NCc1ncccc1F)c1ccnc(CCNCc2nc3ccccc3[nH]2)c1 [compound 222] | 6.09 | 5.47
CN(C)C(=O)c1csc(CCNCc2nc3ccccc3[nH]2)n1 [Example 22] | 4.85 | 4.76
CC1(c2nc(C(=O)NCc3ncccc3F)cs2)CN(CCc2nc3ccccc3[nH]2)C1 [Example 212] | 5.43 | 5.07
O=C(NCc1c(F)cccc1F)c1csc(CCNCc2nc3ccccc3[nH]2)n1 [Example 69] | 5.82 | 6.59
O=C(NCc1ncccc1CO)c1csc(CCNCc2nc3ccccc3[nH]2)n1 [Example 110] | 5.47 | 5.77
CC(C)(CNCCc1nc2ccccc2[nH]1)c1nc(C(=O)NCc2ncccc2F)cs1 [Example 242] | 4.56 | 5.05
O=C(NCc1cccc(N2CCCC2)c1)c1csc(CCNCc2nc3ccccc3[nH]2)n1 [Example 21] | 5.84 | 5.17
O=C(NCc1ncccc1F)c1cccc(CCNCCc2nc3c(F)cccc3[nH]2)c1 [Example 241] | 5.78 | 5.68
O=C(CC(=O)NCc1ncccc1F)NCCNCCc1nc2ccccc2[nH]1 [compound 168] | 5.87 | 6.05
O=C(NCc1ncccc1F)c1cnn(CC2CCCN(Cc3nc4ccccc4[nH]3)C2)c1 (centres unmarked) [Example 153] | 4.24 | 
O=C(NCc1ncccc1F)[C@@H]1CCN(CCNCc2nc3ccccc3[nH]2)C1 [compound 204] | 5.79 | 5.48
O=C(NCc1cccnc1)c1csc(CCNCc2nc3ccccc3[nH]2)n1 [Example 35] | 5.67 | 6.72
O=C(NCc1ncccc1F)c1cnn(CC2CN(CCc3nc4ccccc4[nH]3)C2)c1 [Example 192] | 4.31 | 4.87
O=C(CC(=O)NCc1ncccc1F)NCCNCc1nc2ccccc2[nH]1 [compound 149] | 4.77 | 5.20
O=C(NCCc1ccccn1)c1csc(CCNCc2nc3ccccc3[nH]2)n1 [Example 76] | 5.29 | 6.47
O=C(NCc1ccccc1N1CCOCC1)c1csc(CCNCc2nc3ccccc3[nH]2)n1 [Example 63] | 6.07 | 6.21
CN(C(=O)c1csc(CCNCc2nc3ccccc3[nH]2)n1)c1ccccc1 [Example 19] | 4.99 | 5.00
Cc1c(C(=O)NCc2ncccc2F)ncn1CCNCCc1nc2ccccc2[nH]1 [Example 219] | 5.96 | 5.61
O=C(NCc1ncc[nH]1)c1csc(CCNCc2nc3ccccc3[nH]2)n1 [Example 95] | 4.88 | 5.14
CC(C)N(C(=O)c1csc(CCNCc2nc3ccccc3[nH]2)n1)C1CCCCC1 [Example 25] | 5.41 | 5.66
O=C(NCc1ccccc1)c1csc(CCNCc2nc3cccnc3[nH]2)n1 [Example 33] | 4.76 | 5.44
O=C(CCNCc1nc2ccccc2[nH]1)NCC(=O)NCc1ncccc1F [compound 172] | 5.47 | 5.41
O=C(NCc1ncccc1F)c1cnn(C2CCN(Cc3nc4ccccc4[nH]3)CC2)c1 [Example 150] | 4.14 | 
